# Tests used:
# [1] = target: HIV reverse transcriptase (Human immunodeficiency virus type 1 group M subtype B, UniProt P04585); assay: HIV reverse transcriptase inhibition primer extension experiment (incorporation of nucleoside triphosphates into DNA by RT, chain termination); format: biochemical; details: triphosphate form; template SEQ ID NO:1, primer SEQ ID NO:2; terminated product 38 instead of 53 base pairs; FIG. 2
# Excerpt: For primer extension experiments (Example 3), some of the novel nucleoside analog inhibitors were converted to triphosphate form in vitro, such as occurs in mammalian cells by endogenous enzymes.
# Once incorporated into the growing DNA strand, transcription is terminated because the nucleosides lack the necessary 3′ hydroxyl group.
# The method is analogous to the Sanger sequencing. Specifically, in the presence of a template and four natural nucleotide triphosphates (dATP, dGTP, dCTP and dTTP), a radiolabeled primer is extended to full length by RT, as indicated by a single band on the sequencing gel. Addition of ddTTP, which competes with dTTP, results in the termination of primer extension at the positions of nucleotides opposite adenosine in the template strand. AZTTP, which is also a chain terminator, gives a similar result as ddTTP. If a compounds, e.g., (V) to (VII), in triphosphate form has a branched 3′-group that cannot be accommodated in the 3′-pocket of RT, the compound is not a substrate for RT. Therefore, it will be unable to compete with dTTP, resulting in a completed, extended product. […]
# Template cagatagtcttcacgaggcaggtcgtcttgtcctggtActcgtttgcgttccg (SEQ ID NO:1) and primer […] […] With this template and primer, there is only one adenosine in the template to be read into the growing chain as a thymidine (capital and boldface in SEQ ID NO:1). […]
# [2] = taken with ddI (Videx or Videx EC); cited from earlier work
# [3] = 300 mg x 2/day; cited from earlier work
# [4] = nitrogen at the 3'-branched group; Hossain et al., 1993; Huang et al., 1995; cited from earlier work
compound,measurement,setting,value
"Cc1cn([C@H]2C[C@H](N=[N+]=[N-])[C@@H](CO[P@](=O)(O)O[P@](=O)(O)OP(=O)(O)O)O2)c(=O)[nH]c1=O [AZTTP, AZT-triphosphate]",chain termination of the primer extension opposite the only A in the template (substrate for RT),[1],chain terminators
"CC(C)OC(=O)OCOP(=O)(CO[C@H](C)Cn1cnc2c(N)ncnc21)OCOC(=O)OC(C)C [Viread, tenofovir DF]",increase of ddI levels in the blood,[2],"≤ 60%, causing increased"
"Nc1nc(NC2CC2)c2ncn([C@H]3C=C[C@@H](CO)C3)c2n1 [Ziagen, abacavir]","Serious allergic reactions, share of patients",[3],Serious allergic reactions in about 3-5% of patients.
Cc1cn([C@H]2CC[C@@H](COP(=O)(O)OP(=O)(O)OP(=O)(O)O)O2)c(=O)[nH]c1=O [ddTTP],chain termination of the primer extension opposite the only A in the template (substrate for RT),[1],chain terminators
Cc1cn([C@H]2CC([N+](=O)[O-])[C@@H](CO)O2)c(=O)[nH]c1=O (some centres unmarked) [molecule (I)],effectiveness in vivo,[4],ineffective in vivo
